Experimental data as given in EP2229935A1, “Peptide derivatives or pharmaceutically acceptable salts thereof, method for producing the same, use of said derivatives and pharmaceutical composition” (Nebolsin, Vladimir Evgenievich, priority 1997, dated 1999).
Marks after values point to notes of the source that are not given here.

Tests used:
[1] = tested on: mongrel mice; experiment: Acute hypobaric hypoxia model (AHBH); assay type: in vivo; settings: oral 4 days; for Effect in percent: lifetime relative to control; for Lifetime under hypoxic conditions (minutes): mice, 170-185 mm Hg
Protocol: The tests of determining average lifetime of animals in a closed volume and on the model of acute hypobaric hypoxia at the minimum atmospheric rarefaction (170-185 mm Hg) were used to study antihypoxic activity of the compunds of general formula (I).
Simulation of AHBH was done in a flow-through chamber at temperature 22°C. Experiments were carried out on mongrel mice with initial body mass 20 g at the minimum rarefaction 170-185 mm Hg, that corresponds to the altitude of 10500-11000 m. Lift rate was 35 m/second. Each group included 15 animals. Compounds were administered orally, lift on to altitude was performed 2 hours after the last administration.
Groups of animals: • Group 1 - intact control -administration of normal saline four times. • Groups 2 and 3 - administration of the compound III at doses 50 and 500 µg/kg for 4 days. • Group 4 - single administration of sodium oxybutyrate at a dose […].

[2] = tested on: mongrel rats; experiment: Antiischemic activity: necrosis zone after coronary artery occlusion (myocardial infarction); assay type: in vivo; settings: 4 hours after coronary artery occlusion, oral 4 days
Protocol: Antiischemic activity of a compound was assessed by an integral test, i.e. effect on the necrosis zone area following reproduction of myocardial infarction in mongrel rats weighing 250-300 g.
Effect of a compound on the necrosis zone area was studied in 4 hours after arterial occlusion in rats using a differential indicator method [Sernov L.N., Gatsura V.V. A differential indicator method for determinig ischemic and necrotic zone in experimental myocardial infarction in rats. Bulletin of Experimental Biology and Medicine (1989), No 5, pp. 534-535]. All the painful manipulations were performed on animals under Ethaminal anesthesia (Ethaminal - 40 mg/kg intraperitoneally). Experiment was carried out in 15 hours after the last compound administration. Each group included 8 animals.
Groups of animals: • Group 1 - intact control -administration of normal saline four times. • Groups 2 and 3 - oral administration of the compound III at doses respectively 50 and 500 µg/kg for 4 days. • Group 4 - single intraperitoneal administration of Nicorandil at a dose 1 mg/kg immediately after occlusion.

[3] = tested on: white mongrel male rats; experiment: Paw edema induced by Freund's complete adjuvant; assay type: in vivo
Protocol: Experiment was carried out on white mongrel male rats weghing 280-300 g. The model of paw edema induced by Freund's complete adjuvant (FCA), was reproduced according to the method of Ezamuzie and Umezurike [Ezamuzie Ch., Umezurike C.C. Effect of histamine H2-receptor antagonists on acute inflammatory of the rat paw oedema. J. Pharmacol. (1989), Vol. 41, pp. 261-265]. Paw volume measurement was done using a plethysmograph (Ugo Basile). Inhibition of inflammatory reaction expressed in percent, as calculated according to the formula: 100-[(R-L(exper.))/(L):(R-L(control))/(L)x100](%) [formula] where R - the right paw volume, L - the left paw volume.
Each group included 10 animals.
Group of animals: • Group 1 - control, animals were administered 0.5 ml of 1% starch solution. • Group 2 - animals were administered the compound XLVIII. • Group 3 - animals were administered the compound III. • Group 4 - animals were administered Naproxene.

[4] = tested on: white mongrel male rats; experiment: Carrageenan paw edema, cutaneous gel application (series 2); assay type: in vivo
Protocol: Experiment was carried out on white mongrel male rats weighing 280-300 g. Carrageenan-induced edema was caused according to the method of Winter et al. [[inter et al. In: De Rosa M., Giroud J.P., Willoughby D.A. Studies of the mediators of the acute inflammatory reponse induced in rats in different sites by carrageenan and turpentine. […] Paw volume measurement was done using a plethysmograph (Ugo Basile) 1, 3 and 4 hours after carrageenan administration. Inhibition of inflammatory reaction expressed in percent, was calculated according to the formula: 100-[(R-L(exper.))/(L):(R-L(control))/(L)x100](%) [formula] where R - the right paw volume, L - the left paw volume.
Series 2 of experiment. 2% carrageenan solution was injected sublaterally into paws of rats. In 1 minute 0.1 ml of gel comprising the test compounds were applied on the right paw. Gel base consisted of propylene glycol dissolved in the mixture of water and ethanol. Concentration of the compounds in the gel was 1%. Volume of paws was measured 4 hours after carrageenan administration.

[5] = tested on: Lewis pulmonary carcinoma (LLC); experiment: LLC metastasizing: compound III substance versus tabletted dosage form; assay type: in vivo, C57BL/6 female mice; settings: C57BL/6 mice with LLC; oral 500 µg/kg (active basis) daily day 1-10; 24 days
Protocol: To estimate therapeutic efficacy of compound III tabletted dosage form (0.2 g tablets 6 mm in diameter comprising 17 mg substance) studies were carried out on the model of spontaneous LLC carcinoma metastasizing.
Experiments were carried out on C57BL/6 female mice weighing 20-25 g. Experimental groups included 8 animals and the control group 11 mice. Substance and dosage form of compound III were administered orally at a dose 500 µg/kg (at a rate per an active basis) daily from day 1 till day 10 of experiment. Experiment lasted for 24 days.

[6] = tested on: thromboxane A2 and prostacycline; experiment: Prostacycline to thromboxane ratio in mice with Lewis pulmonary carcinoma; assay type: in vivo, C57B1 male mice; settings: mice with transplanted Lewis carcinoma, day 24; 500 µg/kg per day in drinking water
Protocol: Experiments were carried out on C57B1 male mice weighing 18-20 g. Lewis pulmonary carcinoma (generation 3) transplantation was performed according to a conventional technique [Experimental estrimation of antitumor drugs in the U.S.S.R. and the U.S.A. edited by E.P.Sof'ina, A.B.Syrkin, A.Goldin, A.Kline. Moscow, Meditsina publishers (1980), 296 pp.]. Each group included 8 animals. Administration of compound III at a dose 500 µg/kg per day in drinking water was commenced since 24 hours after tumor transplantation.
Determination of thromboxane A2 and prostacycline was done according to the technique described in example 35. By day 24 of experiments animals were sacrified and the test parameters were determined.
Groups of animals: • Group 1 - intact control. • Group 2 - mice with transplanted Lewis carcinoma. • Group 3 - mice with transplanted Lewis carcinoma + compound III.

[7] = tested on: mongrel male rats; experiment: Hypolipidemic activity: experimental hyperlipidemia (atherogenic load); settings: atherogenic diet, oral last four days, 50 µg/kg;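 also: serum drawn 18 h after the final dose from rats deprived of food over that interval, groups of 10 animals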

O=C(O)CCCC(=O)NCCc1c[nH]cn1 [compound III, N-GLUTARYLHISTAMINE]
Effect in percent ([1]; 50 µg/kg): 105 ± 3,5%
Effect in percent ([1]; 500 µg/kg): 113 ± 5,2%
Lifetime under hypoxic conditions (minutes) ([1]; 50 µg/kg): 322,0 ± 10,9 minutes
Lifetime under hypoxic conditions (minutes) ([1]; 500 µg/kg): 345,3 ± 15,9 minutes
Ischemia zone, percent to the total myocardial mass ([2]; 50 µg/kg): 27,2 ± 2,8%
Necrosis zone percent to myocardial zone ([2]; 50 µg/kg): 56,8 ± 2,7%
Necrosis zone, percent to the total myocardial mass ([2]; 50 µg/kg): 15,4 ± 1,7%
Ischemia zone, percent to the total myocardial mass ([2]; 500 µg/kg): 31,1 ± 3,1%
Necrosis zone percent to myocardial zone ([2]; 500 µg/kg): 54,3 ± 2,1%
Necrosis zone, percent to the total myocardial mass ([2]; 500 µg/kg): 17,8 ± 1,0%
Volume of paws (conditional units) Right [3]: 1.85 ± 0.62 conditional units
Volume of paws (conditional units) left [3]: 1.25 ± 0.34 conditional units
Volume of paws (conditional units) Right ([4]; 0.1 ml of 1% gel on right paw, 4 hours after carrageenan): 2.13 ± 0.64 conditional units
Volume of paws (conditional units) left ([4]; 1% gel group, left paw, 4 hours): 1.83 ± 0.21 conditional units
Inflammation inhibition (%) ([4]; 1% gel, 4 hours): 60%
Volume increment ([4]; 1% gel, 4 hours): 0.30 ±0.06*^l
Mean number of metastases [5]: 22.5 ± 0.9
Metastasizing inhibition percent [5]: 46.4%
Metastasizing rate in percent [5]: 100%
Tumor mass [5]: 12.9 ± 0.9 g
Prostacycline [6]: 5.80 ± 0.75*^2
Ratio 6-keto-PGF1α :TXB2 [6]: 0.80 ± 0.11*^2
Thromboxane A2 [6]: 7.23 ± 0.18*^C

γ-L-glutamylhistamine [compound XLIV]
HDL-CS ([7]; blood): 47,3±1,1***^A
LDL-CS+ VLDL-CS ([7]; blood): 37,4±1,1***^A
Total CS ([7]; blood): 84,7±3,0**^A
Triglycerides ([7]; blood): 85,0±6,3***^A
Kcs ([7]; cholesterol index): 0,79±0,02***^A
